Entries after “also recorded” stand apart in the source; their conditions may differ. Where no end group is shown, it is not given here.
Legend:
Format in all cases: in vivo
rat incisional wounds [1] = assay: Macroscopic scar quality (VAS) of day seventy scars from rat incisional wounds; details: FIG. 9
Description: (§1) Wound index assesses the quality of the wound and gives an assessment based upon the following parameters: wound width (scored out of 10; 1 being a very narrow wound and 10 being a very wide wound); total cellularity of the wound (scored out of 5; 1 being a wound containing a low number of cells and 5 being a wound with a high number of cells); inflammatory cell number (scored out of 5; 1 being a low number of inflammatory cells and 5 being a high number of inflammatory cells); and epithelial covering (scored 0 for complete coverage and 1 for incomplete coverage). The final wound index score is derived by adding the scores for each parameter. A higher wound index value indicates a wound of low quality, whilst a lower wound index value represents a wound of relatively higher quality. • v) The macroscopic quality of scars. This was assessed using a rat macroscopic scar assessment protocol as follows. Macroscopic appearance was scored using a Visual Analogue Scale (VAS) consisting of a 10 cm line representing a scale from 0 corresponding to normal skin to 10 corresponding to a bad scar. A mark was made on the 10 cm line based on an overall assessment of the scar taking into account parameters such as the height, width, contour and colour of the scar. The best scars (typically small width and colour, height and contour like normal skin) were scored towards the normal skin end of the scale (the left hand side of the VAS line) and bad scars (typically large width, raised with uneven contours and whiter colour) were scored towards the bad scar end of the scale (the right hand side of the VAS line). The marks were measured from the left hand side to provide the final value for the scar assessment in centimetres (to 1 decimal place).
(§2) Rat incisional wounds formed in accordance with well-accepted experimental models (previously described in Shah et al. 1994) were treated with peptide Ala-Tyr-Met-Thr-Met-Lys-Ile-Arg-Asn (Sequence ID No. 2) at concentrations of 50, 125, 250 […] ng/100 μl. Treated and control wounds were harvested at three days post-wounding, and scars derived from treated and control wounds harvested at seventy days post-wounding.
(§3) Four wounds were made on each experimental animal (rat), of which two were treated with the trial concentrations of the peptide. The peptide was administered by intradermal injection on the day of wounding and at one day following wounding.
Scars for analysis were harvested from experimental animals killed on the seventieth day post-wounding.
Macroscopic quality of scars was assessed using macroscopic scar assessment sheets scored by two observers in accordance with the protocols described above.
Statistical analysis was carried out using a one-factor analysis of variance (ANOVA) followed by the Mann-Whitney U (MWU) test. […]

rat incisional wounds [2] = assay: Percentage re-epithelialisation by image analysis of day three rat incisional wounds; details: FIG. 4
Experimental: The effects of the peptide on wound healing and scar formation were assessed with reference to the following parameters: • i) The macroscopic quality of the wounds. This was assessed using a rat macroscopic wound assessment protocol as follows. Macroscopic appearance was scored using a Visual Analogue Scale (VAS) consisting of a 10 cm line representing a scale from 0 (denoted by a mark at 0 cm) indicating a “good” wound to 10 (denoted by a mark at 10 cm) indicating a “poor” wound. In assessing the quality of the wound a mark representative of the score conferred was made on the 10 cm line based on the gape and quality of healing of the wound. The best-healed wounds were scored towards the good wound end of the scale (the left hand side of the VAS line) and the poorly healed ones were scored towards the poor wound end of the scale (the right hand side of the VAS line). The marks awarded were measured from the left hand side to provide the final value for the wound assessment in centimetres (to 1 decimal place). • ii) The microscopic width of wounds. The microscopic width of wounds was measured using image analysis of histological sections of wounds. Wounds were analysed using a Leica DM RXA Microscope and a Leica QWin Image Analyser. Linear wound width was measured with a straight line from the left wound margin (where the epidermis begins to thicken) to the right wound margin (where the epidermis begins to thicken). • iii) The re-epithelialisation of wounds. The extent of re-epithelialisation of wounds was measured using image analysis of histological sections of wounds. The percentage re-epithelialisation was calculated by first measuring the non-epithelialised wound diameter. The non-epithelialised wound length was measured with a straight line from the left hand non-epithelialised wound edge to the right hand non-epithelialised wound edge. […] The re-epithelialisation width was then calculated by subtracting the non re-epithelialised width from the wound width. The percentage re-epithelialisation was then calculated accordingly. • iv) The microscopic quality of the wounds. […]

rat incisional wounds [3] = assay: Microscopic wound width by image analysis of day three rat incisional wounds; details: for wound width at the mid-points of incisional wounds: FIG. 3; for wound width at the top of incisional wounds: FIG. 2
Experimental: (§4) The effects of the peptide on wound healing and scar formation were assessed with reference to the following parameters: • i) The macroscopic quality of the wounds. This was assessed using a rat macroscopic wound assessment protocol as follows. Macroscopic appearance was scored using a Visual Analogue Scale (VAS) consisting of a 10 cm line representing a scale from 0 (denoted by a mark at 0 cm) indicating a “good” wound to 10 (denoted by a mark at 10 cm) indicating a “poor” wound. In assessing the quality of the wound a mark representative of the score conferred was made on the 10 cm line based on the gape and quality of healing of the wound. The best-healed wounds were scored towards the good wound end of the scale (the left hand side of the VAS line) and the poorly healed ones were scored towards the poor wound end of the scale (the right hand side of the VAS line). The marks awarded were measured from the left hand side to provide the final value for the wound assessment in centimetres (to 1 decimal place). • ii) The microscopic width of wounds. The microscopic width of wounds was measured using image analysis of histological sections of wounds. Wounds were analysed using a Leica DM RXA Microscope and a Leica QWin Image Analyser. Linear wound width was measured with a straight line from the left wound margin (where the epidermis begins to thicken) to the right wound margin (where the epidermis begins to thicken). • iii) The re-epithelialisation of wounds. The extent of re-epithelialisation of wounds was measured using image analysis of histological sections of wounds. The percentage re-epithelialisation was calculated by first measuring the non-epithelialised wound diameter. The non-epithelialised wound length was measured with a straight line from the left hand non-epithelialised wound edge to the right hand non-epithelialised wound edge. The non-epithelialised wound edges were identified as the current position of the epithelium in the wound during healing. The re-epithelialisation width was then calculated by subtracting the non re-epithelialised width from the wound width. The percentage re-epithelialisation was then calculated accordingly. • iv) The microscopic quality of the wounds. This was assessed using microscopic Wound Index sheets analysed in accordance with the protocol described below. Evaluation of the microscopic quality of the wounds included an assessment of inflammatory response present in the wounds, as well as assessment of the cellularity of the wounds.
as §2, §3
The experimental animals for wound analysis were killed on the third day post-wounding, and wounds harvested for histology.
Wound widths and percentage re-epithelialisation of incisions were measured by Image Analysis in accordance with the protocols described above. […]

rat incisional wounds [4] = assay: Macroscopic wound quality (VAS) of day three rat incisional wounds; details: day 0 and 1, p<0.05 vs naïve wounds, FIG. 1
Experimental: The effects of the peptide on wound healing and scar formation were assessed with reference to the following parameters: • i) The macroscopic quality of the wounds. This was assessed using a rat macroscopic wound assessment protocol as follows. Macroscopic appearance was scored using a Visual Analogue Scale (VAS) consisting of a 10 cm line representing a scale from 0 (denoted by a mark at 0 cm) indicating a “good” wound to 10 (denoted by a mark at 10 cm) indicating a “poor” wound. In assessing the quality of the wound a mark representative of the score conferred was made on the 10 cm line based on the gape and quality of healing of the wound. The best-healed wounds were scored towards the good wound end of the scale (the left hand side of the VAS line) and the poorly healed ones were scored towards the poor wound end of the scale (the right hand side of the VAS line). The marks awarded were measured from the left hand side to provide the final value for the wound assessment in centimetres (to 1 decimal place). • ii) The microscopic width of wounds. The microscopic width of wounds was measured using image analysis of histological sections of wounds. Wounds were analysed using a Leica DM RXA Microscope and a Leica QWin Image Analyser. […] The extent of re-epithelialisation of wounds was measured using image analysis of histological sections of wounds. […]

rat incisional wounds [5] = assay: Microscopic Wound Index (wound width, cellularity, inflammation, epithelial covering) of day three rat incisional wounds; details: for wound index score / wound width score (Wound Index parameter): day three, combined scores of 3 observers; for wound index score: FIG. 5; for wound width score (Wound Index parameter): FIG. 6
Experimental: as §4
as §1, with “The best scars (typically small width and colour, height and contour like normal skin) were scored towards the normal skin end of the scale (the left hand side of the VAS line) and bad scars (typically large width, raised with uneven contours and whiter colour) were scored towards the bad scar end of the scale (the right hand side of the VAS line). The marks were measured from the left hand side to provide the final value for the scar assessment in centimetres (to 1 decimal place).” left out

[6] = 125 ng/100 μl, p<0.01 vs naïve wounds

Q: “AYMTMKIRN [peptide of Sequence ID No. 2, peptide based on the C-terminal portion of interleukin 10 (IL-10)]” was tested. Which “macroscopic visual analogue (VAS) score, scar quality” value (rat incisional wounds [1]; 50 ng/100 μl, p<0.05 vs naïve control wounds) did it give?
A: significantly improved scarring

Q: What about the “macroscopic visual analogue (VAS) score, scar quality” value (rat incisional wounds [1]; 125 ng/100 μl, p<0.05 vs naïve control wounds) of the same sequence?
A: significantly improved scarring

Q: What about the “macroscopic visual analogue (VAS) score, scar quality” value (rat incisional wounds [1]; 250 ng/100 μl, p<0.01 vs naïve and diluent control wounds, 2 observers) of the same sequence?
A: significant improvement in macroscopic quality

Q: And the “macroscopic visual analogue (VAS) score, scar quality” value (rat incisional wounds [1]; 500 ng/100 μl, p<0.05 vs naïve control wounds)?
A: significantly improved scarring

Q: What about the “percentage of the tops of incisional wounds covered by re-epithelialisation” value (“percentage” for short) (rat incisional wounds [2]; 50 ng/100 μl) of the same sequence?
A: appeared to exhibit an increase in the extent of re-epithelialisation

Q: What about the “percentage” value (rat incisional wounds [2]; 125 ng/100 μl) of the same sequence?
A: appeared to exhibit an increase in the extent of re-epithelialisation

Q: What about the “percentage” value (rat incisional wounds [2]; 250 ng/100 μl, p<0.01 vs naïve, p<0.05 vs diluent alone) of the same sequence?
A: significant increase in the extent of re-epithelialisation

Q: What about the “wound width at the mid-points of incisional wounds” value (“wound width at the mid-points” for short) (rat incisional wounds [3]; 50 ng/100 μl, p<0.05 vs naïve wounds) of the same sequence?
A: significant decrease in wound width

Q: And the “wound width at the top of incisional wounds” value (rat incisional wounds [3]; [6])?
A: significant decrease in wound width

Q: And the “wound width at the mid-points” value (rat incisional wounds [3]; [6])?
A: significant decrease in wound width

Q: What about the “wound width at the top of incisional wounds” value (rat incisional wounds [3]; 250 ng/100 μl, p<0.01 vs naïve wounds) of the same sequence?
A: significant decrease in wound width

Q: What about the “wound width at the mid-points” value (rat incisional wounds [3]; 250 ng/100 μl, p<0.01 vs naïve, p<0.05 vs diluent control wounds) of the same sequence?
A: significant decrease in wound width

Q: And the “macroscopic visual analogue (VAS) score, wound quality” value (rat incisional wounds [4]; 125 ng/100 μl intradermal)?
A: significant improvement in the macroscopic quality

Q: What about the “macroscopic visual analogue (VAS) score, wound quality” value (rat incisional wounds [4]; 250 ng/100 μl intradermal) of the same sequence?
A: significant improvement in the macroscopic quality

Q: And the wound index score (rat incisional wounds [5]; 50 ng/100 μl)?
A: lower wound index scores than did control wounds

Q: What about the “wound width score (Wound Index parameter)” value (rat incisional wounds [5]; 50 ng/100 μl) of the same sequence?
A: lower wound width scores than controls

Q: What about the wound index score (rat incisional wounds [5]; 125 ng/100 μl) of the same sequence?
A: lower wound index scores than did control wounds

Q: And the “wound width score (Wound Index parameter)” value (rat incisional wounds [5]; 125 ng/100 μl)?
A: lower wound width scores than controls

Q: What about the wound index score (rat incisional wounds [5]; 250 ng/100 μl) of the same sequence?
A: lower wound index scores than did control wounds; also recorded: lowest wound index scores

Q: What about the “wound width score (Wound Index parameter)” value (rat incisional wounds [5]; 250 ng/100 μl) of the same sequence?
A: lower wound width scores than controls

Q: And the “cellularity of treated wounds” value (rat incisional wounds [5]; day three incisional wounds, combined observers, FIG. 7)?
A: did not reduce cellularity of treated wounds

Q: What about the “inflammatory response in treated wounds” value (rat incisional wounds [5]; day three incisional wounds, combined observers, FIG. 8) of the same sequence?
A: did not reduce cellularity of treated wounds, or cause a reduction of the inflammatory response
